# Results published in US4293557A, “Antiulcer phenoxypropylamine derivatives” (Teikoku Hormone Mfg. Co., Ltd., priority 1979, dated 1981).
# Molecular target: T1, histamine H2 receptor (Cavia porcellus, UniProt P47747)
# T1 construct: histamine-induced chronotropic response, pA2
# Experiment: Measurement of histamine H2 receptor antagonizing activity (isolated right atrium, histamine dose-response of heart beat)
# Set-up: species or system Hartley
# Settings: isolated guinea pig right atrium; test compound 1×10^-5 M; negative logarithm of molar concentration required to double the histamine concentration; Van Rossum method
# Procedure: (1) Measurement of histamine H2 receptor antagonizing activity
# A guinea pig, Hartley, (male 400-550 g) was struck at the head to let out blood, and the heart was enucleated. The right atrium was separated in a Tyrod solution saturated with oxygen, and a silk thread was attached to its both ends. Using the silk threads at both ends, the atrium was suspended under a tension of 700 mg in a Magnus tube (25 ml) containing a Tyrod solution maintained at 36° C. through which mixture of 95% of O2 and 5% of CO2 was passed. The contracting motion of the atrium was recorded by a force-displacement transducer, and the number of heart beats was calculated.
# Histamine (used in the form of diphosphate; the same hereinbelow) was cumulatively added to the Magnus tube in a concentration of 1×10^-8 M to 1×10^-4 M in such an amount that the logarithm of the amount provides an equal interval of 1/2, until a maximum increase in heart beat was obtained. Thus, the dose-response curve of histamine was obtained. The inside of the Magnus tube was washed several times with a Tyrod solution, and the atrium was stabilized for 1 hour. Then, the above procedure was repeated to obtain the dose-response curve of histamine again. The inside of the Magnus tube was washed several times, and the tissues were stabilized for 50 minutes. Then, a test compound (1×10^-5 M) was added to the Magnus tube, and after 20 minutes, the dose-response curve of histamine in the presence of the test compound was obtained.
# The PA2 value (the negative logarithm of the molar concentration of the test compound required to double the concentration of histamine in the Magnus tube required to induce a certain reaction) was calculated from the dose-response curve of histamine obtained in the second operation and the dose-response curve of histamine in the presence of the test compound in accordance with the method of J. M. Van Rossum (Arch. int. Pharmacodyn., 143, 299, 1963).
# T1 sequence (P47747 whole entry): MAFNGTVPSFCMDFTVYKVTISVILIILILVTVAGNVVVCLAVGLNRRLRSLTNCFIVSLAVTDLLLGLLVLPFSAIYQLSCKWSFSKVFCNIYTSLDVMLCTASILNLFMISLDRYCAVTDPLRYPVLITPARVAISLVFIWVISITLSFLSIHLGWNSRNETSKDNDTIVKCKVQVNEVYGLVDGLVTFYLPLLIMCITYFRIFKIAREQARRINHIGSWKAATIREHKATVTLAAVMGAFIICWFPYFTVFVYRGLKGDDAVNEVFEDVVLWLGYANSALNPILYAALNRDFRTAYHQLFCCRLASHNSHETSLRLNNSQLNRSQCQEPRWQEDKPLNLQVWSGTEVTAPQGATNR
row,Compound,PA2
1,"CC(=O)NCCCOc1cccc(C(C)N2CCCCC2)c1 (centres unmarked) [I, N-[3-[3-[1-(1-Piperidinyl)ethyl]phenoxy]propyl]acetamide]",5.97
2,"O=C(COC(=O)c1ccc(Cl)c(Cl)c1)NCCCOc1cccc(CN2CCCCCC2)c1 [U, N-(3,4-Dichlorobenzoyloxyacetyl)-3-[3-(1-perhydroazepinylmethyl)phenoxy]propylamine]",6.80
3,"CCC(c1cccc(OCCCNC(C)=O)c1)N1CCCC1 (centres unmarked) [G, N-[3-[3-[1-(1-Pyrrolidinyl)propyl]phenoxy]propyl]acetamide]",6.47
4,"CC(c1cccc(OCCCNC=O)c1)N1CCCCCC1 (centres unmarked) [D, N-[3-[3-(1-(1-Perhydroazepinyl)ethyl]phenoxy]propyl]formamide]",6.14
5,"CC(=O)OCC(=O)NCCCOc1cccc(CN2CCCCCC2)c1 [R, N-[3-[3-(1-Perhydroazepinylmethyl)phenoxy]propyl]acetoxyacetamide]",6.28
6,"CC(=O)NCCCOc1cccc(CN2CCCCC2)c1 [H, N-[3-[3-(1-Piperidinylmethyl)phenoxy]propyl]acetamide]",6.52
7,"CC(c1cccc(OCCCNC(=O)CO)c1)N1CCCC1 (centres unmarked) [K, N-[3-[3-[1-(1-Pyrrolidinyl)ethyl]phenoxy]propyl]hydroxyacetamide]",5.83
8,"CC(c1cccc(OCCCNC=O)c1)N1CCCC1 (centres unmarked) [A, N-[3-[3-[1-(1-Pyrrolidinyl)ethyl]phenoxy]propyl]formamide]",6.12
9,"O=CNCCCOc1cccc(CN2CCCCC2)c1 [C, N-[3-[3-(1-Piperidinylmethyl)phenoxy]propyl]formamide]",6.50
10,"CCC(=O)NCCCOc1cccc(C(C)N2CCCC2)c1 (centres unmarked) [J, N-[3-[3-[1-(1-Pyrrolidinyl)ethyl]phenoxy]propyl]propionamide]",6.04
11,"O=C(CO)NCCCOc1cccc(CN2CCCCC2)c1 [L, N-[3-[3-(1-Piperidinylmethyl)phenoxy]propyl]hydroxyacetamide]",6.79
12,"CCC(=O)OCC(=O)NCCCOc1cccc(CN2CCCCC2)c1 [S, N-[3-[3-(1-Piperidinylmethyl)phenoxy]propyl]propionyloxyacetamide]",6.77
13,"O=C(COC(=O)c1ccccc1)NCCCOc1cccc(CN2CCCCC2)c1 [T, N-[3-[3-(1-Piperidinylmethyl)phenoxy]propyl]benzoyloxyacetamide]",6.74
14,"CC(=O)OCC(=O)NCCCOc1cccc(C(C)N2CCCC2)c1 (centres unmarked) [P, N-[3-[3-[1-(1-Pyrrolidinyl)ethyl]phenoxy]propyl]acetoxyacetamide]",6.11
15,"O=C(CO)NCCCOc1cccc(CN2CCCCCC2)c1 [M, N-[3-[3-(1-Perhydroazepinylmethyl)phenoxy]propyl]hydroxyacetamide]",6.29
16,"CC(=O)OCC(=O)NCCCOc1cccc(CN2CCCCC2)c1 [Q, N-[3-[3-(1-Piperidinylmethyl)phenoxy]propyl]acetoxyacetamide]",7.10
17,CCC(c1cccc(OCCCNC=O)c1)N1CCCC1 (centres unmarked) [B],6.49
18,CC(c1cccc(OCCCNC=O)c1)N1CCC(O)C1 (centres unmarked) [E],5.99
19,"COCC(=O)NCCCOc1cccc(CN2CCCCC2)c1 [O, N-[3-[3-(1-Piperidinylmethyl)phenoxy]propyl]methoxyacetamide]",6.62
20,"CC(=O)NCCCOc1cccc(C(C)N2CCCC2)c1 (centres unmarked) [F, N-[3-[3-[1-(1-Pyrrolidinyl)ethyl]phenoxy]propyl]acetamide]",6.16
21,"CC(c1cccc(OCCCNC(=O)CCN)c1)N1CCCC1 (centres unmarked) [N, N-(3-Aminopropionyl)-3-[3-[1-(1-pyrrolidinyl)ethyl]phenoxy]propylamine]",6.26

# Tested on: not listed separately
# Experiment: in vivo
# Settings: mouse, oral, 5% Tween 80 suspension, male ddY mice 19-22 g, Litchfield-Wilcoxon method
row,Compound,LD50 at 72 h
1,"CC(c1cccc(OCCCNC=O)c1)N1CCCC1 (centres unmarked) [A, N-[3-[3-[1-(1-Pyrrolidinyl)ethyl]phenoxy]propyl]formamide]",2500 mg/kg
2,"CC(=O)NCCCOc1cccc(C(C)N2CCCC2)c1 (centres unmarked) [F, N-[3-[3-[1-(1-Pyrrolidinyl)ethyl]phenoxy]propyl]acetamide]",2100 mg/kg
